Patent publication US7423044B2, “Pyrimidine derivatives useful in the treatment of insulin resistance and hyperglycemia” (Wyeth, priority 2002, dated 2008)

Target: T1, PTP-1B (Homo sapiens, UniProt P18031)
T1 sequence (P18031 1-435): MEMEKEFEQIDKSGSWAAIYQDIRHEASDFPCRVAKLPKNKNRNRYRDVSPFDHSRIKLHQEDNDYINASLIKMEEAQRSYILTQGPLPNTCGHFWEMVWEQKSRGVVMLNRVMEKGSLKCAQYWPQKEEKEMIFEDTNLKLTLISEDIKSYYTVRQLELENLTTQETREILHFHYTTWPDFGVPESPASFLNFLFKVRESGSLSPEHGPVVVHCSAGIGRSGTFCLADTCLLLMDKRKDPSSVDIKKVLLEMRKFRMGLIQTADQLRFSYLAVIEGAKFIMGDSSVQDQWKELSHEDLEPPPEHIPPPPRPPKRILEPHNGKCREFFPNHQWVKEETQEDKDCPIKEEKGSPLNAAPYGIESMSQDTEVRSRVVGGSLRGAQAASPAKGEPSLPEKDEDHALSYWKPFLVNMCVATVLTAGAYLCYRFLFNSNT
Assay: PTPase inhibition assay (DIFMUP fluorescence kinetic assay)
Type: biochemical
Conditions: apparent final potency from steady-state velocity (Vs); 20 μM DIFMUP, 1 nM enzyme; read-out: Kiapp
Method: Measurement of PTPase activity: The present compounds are assayed in an enzyme activity-based assay. PTP-1B is known to dephosphorylate phospho-peptides. This assay is a fluorescence intensity based kinetic assay, taking advantage of a non-peptidyl substrate, 6,8-difluoro-4-methylumbelliferyl phosphate (DIFMUP). When excited at 358 nm, the dephosphorylated product of DIFMUP emits at 450 nm.
The compounds of Examples 1-22 were analyzed as follows. The assay was conducted in black 384-well non-treated plates (Costar#3710). The assay buffer contained 50 mM 3,3-dimethyl glutaric acid, pH 7.0, 48 mM NaCl, 1 mM EDTA. Inhibitors were prepared as DMSO solution and diluted to desired concentrations using 50 mM HEPES, pH 7.4. PTP-1B was diluted to a 2.5 nM working stock using the assay buffer containing additional 0.001% (w/v) hydrogenated Triton X-100. DIFMUP was diluted to 40 μM using the assay buffer. 5 μl of inhibitor was first dispensed into assay plate. In cases of control reactions, […] of the assay buffer was dispensed. This was followed by 25 μl of DIFMUP working stock. The reaction was then initiated by the addition of 20 μl of PTP-1B working stock. The final DIFMUP concentration was 20 μM (˜1.6×Km). The final enzyme concentration was 1 nM and the detergent concentration was 0.0004% (w/v). Typical inhibitor concentrations were from 0.08 to 40 μM. The reaction progress was monitored continuously for 30 min.
Calculations: For data analysis, the last five data points were used to obtain a slope corresponding to the estimated steady-state velocity (Vs), and the overall progress curves were used to obtain the average velocity (Va), by linear regression in both cases. The apparent final potency of inhibitor (Kiapp) was then calculated from Vs data, using the standard hyperbolic inhibition equation. The IC50 values were calculated from Va data using the sigmoidal inhibition equation. % Inhibition values were calculated from Va values of inhibitor at 40 μM, and the average Va value of control reactions.

| Ki [nM] | Structure (SMILES) |
| --- | --- |
| 1670 | O=C(O)c1ccc(COc2cc(-c3ccccc3)nc(-c3ccc(Cl)cc3)n2)cc1 [Example 1, 4-({[2-(4-Chlorophenyl)-6-phenylpyrimidin-4-yl]oxy}methyl)benzoic acid] |
| 7210 | O=C(O)c1ccc(COc2cc(-c3ccccc3)nc(-c3ccncc3)n2)cc1 [Example 6, 4-{[(6-Phenyl-2-pyridin-4-ylpyrimidin-4-yl)oxy]methyl}benzoic acid] |
| 2970 | O=C(O)c1ccc(COc2cc(-c3ccccc3)nc(-c3ccccc3)n2)cc1 [Example 7, 4-{[(2,6-Diphenylpyrimidin-4-yl)oxy]methyl}benzoic acid] |

Same assay, conditions: inhibitor at 40 μM; from average velocity (Va); 20 μM DIFMUP, 1 nM enzyme

| inhibition at 40 µM [%] | Structure (SMILES) |
| --- | --- |
| 100 | O=C(O)c1ccc(COc2cc(-c3ccccc3)nc(-c3ccc(Cl)cc3)n2)cc1 [Example 1, 4-({[2-(4-Chlorophenyl)-6-phenylpyrimidin-4-yl]oxy}methyl)benzoic acid] |
| 10 | Fc1ccc(COc2nc(-c3ccc(Cl)cc3)nc3c2CCC3)cc1 [Example 2, 2-(4-Chlorophenyl)-4-[(4-fluorobenzyl)oxy]-6,7-dihydro-5H-cyclopenta[d]pyrimidine] |
| 11 | Fc1ccc(COc2cc(-c3ccccc3)nc(-c3ccncc3)n2)cc1 [Example 3, 4-[(4-Fluorobenzyl)oxy]-6-phenyl-2-pyridin-4-ylpyrimidine] |
| 12 | Fc1ccc(COc2nc(-c3ccccc3)nc3c2CCC3)cc1 [Example 4, 4-[(4-Fluorobenzyl)oxy]-2-phenyl-6,7-dihydro-5H-cyclopenta[d]pyrimidine] |
| 11 | Fc1ccc(COc2cc(-c3ccccc3)nc(-c3ccc(Cl)cc3)n2)cc1 [Example 5, 2-(4-Chlorophenyl)-4-[(4-fluorobenzyl)oxy]-6-phenylpyrimidine] |
| 56 | O=C(O)c1ccc(COc2cc(-c3ccccc3)nc(-c3ccncc3)n2)cc1 [Example 6, 4-{[(6-Phenyl-2-pyridin-4-ylpyrimidin-4-yl)oxy]methyl}benzoic acid] |
| 99 | O=C(O)c1ccc(COc2cc(-c3ccccc3)nc(-c3ccccc3)n2)cc1 [Example 7, 4-{[(2,6-Diphenylpyrimidin-4-yl)oxy]methyl}benzoic acid] |
| 48 | CC(C)c1cc(OCc2ccc(F)cc2)nc(-c2cc(Cl)cc(Cl)c2)n1 [Example 8, 2-(3,5-Dichlorophenyl)-4-[(4-fluorobenzyl)oxy]-6-isopropylpyrimidine] |
| 55 | Fc1ccc(COc2nc(-c3cc(Cl)cc(Cl)c3)nc3c2CN(Cc2ccccc2)CC3)cc1 [Example 9, 6-Benzyl-2-(3,5-dichlorophenyl)-4-[(4-fluorobenzyl)oxy]-5,6,7,8-tetrahydropyrido[4,3-d]pyrimidine] |
| 56 | CC(C)c1cc(OCc2ccc(F)cc2)nc(-c2cccc([N+](=O)[O-])c2)n1 [Example 10, 4-[(4-Fluorobenzyl)oxy]-6-isopropyl-2-(3-nitrophenyl)pyrimidine] |
| 34 | CC(C)c1cc(OCc2ccc(C#N)cc2)nc(-c2cc(Cl)cc(Cl)c2)n1 [Example 11, 4-({[2-(3,5-Dichlorophenyl)-6-isopropylpyrimidin-4-yl]oxy}methyl)benzonitrile] |
| 54 | N#Cc1ccc(COc2nc(-c3cc(Cl)cc(Cl)c3)nc3c2CN(Cc2ccccc2)CC3)cc1 [Example 12, 4-({[6-Benzyl-2-(3,5-dichlorophenyl)-5,6,7,8-tetrahydropyrido[4,3-d]pyrimidin-4-yl]oxy}methyl)benzonitrile] |
| 55 | CC(C)c1cc(OCc2ccc(C#N)cc2)nc(-c2cccc([N+](=O)[O-])c2)n1 [Example 13, 4-({[6-isopropyl-2-(3-nitrophenyl)pyrimidin-4-yl]oxy}methyl)benzonitrile] |
| 64 | N#Cc1ccc(COc2nc(-c3cccc([N+](=O)[O-])c3)nc3c2CN(Cc2ccccc2)CC3)cc1 [Example 14, 4-({[6-Benzyl-2-(3-nitrophenyl)-5,6,7,8-tetrahydropyrido[4,3-d]pyrimidin-4-yl]oxy}methyl)benzonitrile] |
| 57 | CC(C)c1cc(OCc2ccc(C(F)(F)F)cc2)nc(-c2cc(Cl)cc(Cl)c2)n1 [Example 15, 2-(3,5-Dichlorophenyl)-4-isopropyl-6-{[4-(trifluoromethyl)benzyl]oxy} pyrimidine] |
| 52 | FC(F)(F)c1ccc(COc2nc(-c3cc(Cl)cc(Cl)c3)nc3c2CN(Cc2ccccc2)CC3)cc1 [Example 16, 6-Benzyl-2-(3,5-dichlorophenyl)-4-{[4-(trifluoromethyl)benzyl]oxy}-5,6,7,8-tetrahydropyrido[4,3-d]pyrimidine] |
| 49 | CC(C)c1cc(OCc2ccc(C(F)(F)F)cc2)nc(-c2cccc([N+](=O)[O-])c2)n1 [Example 17, 4-Isopropyl-2-(3-nitrophenyl)-6-{[4-(trifluoromethyl)benzyl]oxy} pyrimidine] |
| 51 | O=[N+]([O-])c1cccc(-c2nc3c(c(OCc4ccc(C(F)(F)F)cc4)n2)CN(Cc2ccccc2)CC3)c1 [Example 18, 6-Benzyl-2-(3-nitrophenyl)-4-{[4-(trifluoromethyl)benzyl]oxy}-5,6,7,8-tetrahydropyrido[4,3-d]pyrimidine] |
| 101 | CC(C)c1cc(OCc2ccc(C(=O)O)cc2)nc(-c2cc(Cl)cc(Cl)c2)n1 [Example 19, 4-({[2-(3,5-Dichlorophenyl)-6-isopropylpyrimidin-4-yl]oxy}methyl)benzoic acid] |
| 100 | O=C(O)c1ccc(COc2nc(-c3cc(Cl)cc(Cl)c3)nc3c2CN(Cc2ccccc2)CC3)cc1 [Example 20, 4-({[6-Benzyl-2-(3,5-dichlorophenyl)-5,6,7,8-tetrahydropyrido[4,3-d]pyrimidin-4-yl]oxy}methyl)benzoic acid] |
| 101 | CC(C)c1cc(OCc2ccc(C(=O)O)cc2)nc(-c2cccc([N+](=O)[O-])c2)n1 [Example 21, 4-({[6-Isopropyl-2-(3-nitrophenyl)pyrimidin-4-yl]oxy}methyl)benzoic acid] |
| 93 | O=C(O)c1ccc(COc2nc(-c3cccc([N+](=O)[O-])c3)nc3c2CN(Cc2ccccc2)CC3)cc1 [Example 22, 4-({[6-Benzyl-2-(3-nitrophenyl)-5,6,7,8-tetrahydropyrido[4,3-d]pyrimidin-4-yl]oxy}methyl)benzoic acid] |
